According to PubChem BioAssay AID248 (DTP/NCI, 2004):
Inconclusive results and toxic doses are left out. Rule as the data show it: active = T/C of 150% or more; inactive = T/C below 125%.

Test system: L1210 leukemia ip in BDF1 mice, survival T/C
Assay: NCI In Vivo Anticancer Drug Screen. Data for tumor model L1210 Leukemia (intraperitoneal) in B6D2F1 (BDF1) mice
Conditions: endpoint: mean survival time, higher = longer survival
Method in brief: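 Survival endpoint. Drug-treated group vs vehicle group, expressed as T divided by C. Tumor passaged by transplantation.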

[1] = dose: 50.0 mg/kg/injection, schedule: Q01DX001 (ip), vehicle: saline
[2] = dose: 100.0 mg/kg/injection, schedule: Q01DX001 (ip), vehicle: saline
[3] = dose: 200.0 mg/kg/injection, schedule: Q01DX001 (ip), vehicle: saline
[4] = dose: 400.0 mg/kg/injection, schedule: Q01DX001 (ip), vehicle: saline
[5] = dose: 100.0 mg/kg/injection, schedule: Q04DX003 (ip), vehicle: Klucel (hydroxypropylcellulose) (HPC)
[6] = dose: 200.0 mg/kg/injection, schedule: Q04DX003 (ip), vehicle: Klucel (hydroxypropylcellulose) (HPC)
[7] = dose: 100.0 mg/kg/injection, schedule: Q04DX003 (ip), vehicle: saline with Tween-80
[8] = dose: 200.0 mg/kg/injection, schedule: Q04DX003 (ip), vehicle: saline with Tween-80
[9] = dose: 50.0 mg/kg/injection, schedule: Q01DX009 (ip), vehicle: saline with Tween-80
[10] = dose: 75.0 mg/kg/injection, schedule: Q01DX001 (ip), vehicle: carboxymethylcellulose (CMC)
[11] = dose: 150.0 mg/kg/injection, schedule: Q01DX001 (ip), vehicle: carboxymethylcellulose (CMC)

Measured: T/C

COc1ccccc1CN1CCCN(Cc2ccccc2OC)C1c1ccccc1O
inactive: [1] 101 % of control | [2] 103 % of control | [3] 101 % of control | [4] 97 % of control

Cc1c(C)c([N+](=O)[O-])c(/C=C/C(=O)O)c(C)c1[N+](=O)[O-]
inactive: [5] 97 % of control | [6] 86 % of control

C/C(=N\OCc1cc2c(cc1Cl)OCO2)C(=O)O
inactive: [7] 100 % of control | [8] 99 % of control | dose: 400.0 mg/kg/injection, schedule: Q04DX003 (ip), vehicle: saline with Tween-80 91 % of control

CCCCCCCCOP(=O)(N1CC1C)N1CC1C (stereo unspecified)
inactive: dose: 33.0 mg/kg/injection, schedule: Q01DX003 (ip), vehicle: acetone 102 % of control | dose: 33.0 mg/kg/injection, schedule: Q01DX009 (ip), vehicle: saline with Tween-80 114 % of control | dose: 33.0 mg/kg/injection, schedule: Q01DX009 (ip), vehicle: saline 116 % of control | dose: 50.0 mg/kg/injection, schedule: Q01DX003 (ip), vehicle: acetone 96 % of control | [9] 122 % of control | dose: 75.0 mg/kg/injection, schedule: Q01DX003 (ip), vehicle: acetone 113 % of control | dose: 100.0 mg/kg/injection, schedule: Q01DX001 (ip), vehicle: acetone 103 % of control | dose: 200.0 mg/kg/injection, schedule: Q01DX001 (ip), vehicle: acetone 114 % of control

CCCN(CCC)S(=O)(=O)CCC
inactive: dose: 50.0 mg/kg/injection, schedule: Q04DX002 (ip), vehicle: saline with Tween-80 97 % of control | dose: 100.0 mg/kg/injection, schedule: Q04DX002 (ip), vehicle: saline with Tween-80 97 % of control | dose: 200.0 mg/kg/injection, schedule: Q04DX002 (ip), vehicle: saline with Tween-80 101 % of control

OCc1c2ccccc2cc2ccccc12
inactive: dose: 100.0 mg/kg/injection, schedule: Q01DX001 (ip), vehicle: saline with Tween-80 93 % of control | dose: 200.0 mg/kg/injection, schedule: Q01DX001 (ip), vehicle: saline with Tween-80 87 % of control | dose: 400.0 mg/kg/injection, schedule: Q01DX001 (ip), vehicle: saline with Tween-80 93 % of control

CC1=CC23C(COC(=O)C24CO4)C(C(=O)O)=CC3C1C (stereo unspecified) (tested in a mixture with another compound)
inactive: dose: 1.2 mg/kg/injection, schedule: Q01DX001 (ip), vehicle: saline 101 % of control | dose: 2.5 mg/kg/injection, schedule: Q01DX001 (ip), vehicle: saline 100 % of control

CCCCCCCCP(=O)(CCCCCCCC)CCCCCCCC
inactive: dose: 50.0 mg/kg/injection, schedule: Q01DX001 (ip), vehicle: carboxymethylcellulose (CMC) 95 % of control | dose: 100.0 mg/kg/injection, schedule: Q01DX001 (ip), vehicle: carboxymethylcellulose (CMC) 95 % of control | dose: 200.0 mg/kg/injection, schedule: Q01DX001 (ip), vehicle: carboxymethylcellulose (CMC) 95 % of control | dose: 400.0 mg/kg/injection, schedule: Q01DX001 (ip), vehicle: carboxymethylcellulose (CMC) 101 % of control

COc1ccc(/C=[N+](\[O-])c2ccccc2)cc1
inactive: [1] 110 % of control | [2] 112 % of control | [3] 112 % of control | [4] 118 % of control

ClC1=C(Cl)C(Cl)(Cl)C2C1C1C(Cl)=C(Cl)C(Cl)(Cl)C1C1C2C(Cl)=C(Cl)C1(Cl)Cl (stereo unspecified)
inactive: dose: 100.0 mg/kg/injection, schedule: Q01DX001 (ip), vehicle: gum acacia 95 % of control | dose: 100.0 mg/kg/injection, schedule: Q01DX009 (ip), vehicle: gum acacia 92 % of control | dose: 200.0 mg/kg/injection, schedule: Q01DX001 (ip), vehicle: gum acacia 88 % of control | dose: 200.0 mg/kg/injection, schedule: Q01DX009 (ip), vehicle: gum acacia 94 % of control | dose: 400.0 mg/kg/injection, schedule: Q01DX001 (ip), vehicle: gum acacia 92 % of control | dose: 400.0 mg/kg/injection, schedule: Q01DX009 (ip), vehicle: gum acacia 93 % of control

CCCC#C/C=C1/C=CC(=O)O1
inactive: [10] 94 % of control | [11] 97 % of control

CC1(C)OCC(C2OC(N)C3OC(C)(C)OC32)O1 (stereo unspecified)
inactive: dose: 100.0 mg/kg/injection, schedule: Q04DX002 (ip), vehicle: saline 97 % of control | dose: 200.0 mg/kg/injection, schedule: Q04DX002 (ip), vehicle: saline 113 % of control | dose: 400.0 mg/kg/injection, schedule: Q04DX002 (ip), vehicle: saline 103 % of control

C=CCC(B1OCCO1)B1OCCO1
inactive: dose: 100.0 mg/kg/injection, schedule: Q04DX003 (ip), vehicle: saline sonified 106 % of control | dose: 200.0 mg/kg/injection, schedule: Q04DX003 (ip), vehicle: saline sonified 95 % of control | dose: 400.0 mg/kg/injection, schedule: Q04DX003 (ip), vehicle: saline sonified 110 % of control

O=C(c1ccccc1Br)C1C(c2ccccc2)N1C1CCCCC1 (stereo unspecified)
inactive: dose: 50.0 mg/kg/injection, schedule: Q04DX003 (ip), vehicle: Klucel (hydroxypropylcellulose) (HPC) 102 % of control | [5] 102 % of control | [6] 98 % of control | dose: 400.0 mg/kg/injection, schedule: Q04DX003 (ip), vehicle: Klucel (hydroxypropylcellulose) (HPC) 93 % of control

C(=C\c1ccccc1)/C[n+]1cccc2ccccc21
inactive: dose: 75.0 mg/kg/injection, schedule: Q01DX001 (ip), vehicle: saline 89 % of control

O=S1(=O)N=C(c2ccccc2)CC(c2ccccc2)N1 (stereo unspecified)
inactive: dose: 25.0 mg/kg/injection, schedule: Q01DX009 (ip), vehicle: saline with Tween-80 87 % of control | [9] 96 % of control | dose: 50.0 mg/kg/injection, schedule: Q04DX003 (ip), vehicle: saline with Tween-80 98 % of control | dose: 100.0 mg/kg/injection, schedule: Q01DX009 (ip), vehicle: saline with Tween-80 94 % of control | [7] 93 % of control | dose: 200.0 mg/kg/injection, schedule: Q01DX009 (ip), vehicle: saline with Tween-80 93 % of control | [8] 86 % of control

O=C(CCl)Nc1ncn[nH]1
inactive: [10] 101 % of control | [11] 97 % of control | dose: 300.0 mg/kg/injection, schedule: Q01DX001 (ip), vehicle: carboxymethylcellulose (CMC) 107 % of control

COc1ccc(C2(OC)Oc3ccccc3C(=O)C2(O)OC)cc1OC (stereo unspecified)
inactive: [1] 105 % of control | [2] 103 % of control | [3] 100 % of control | [4] 97 % of control
